Data on 1 compound can be found in US7368572B2, “Acetylene derivatives as inhibitors of histone deacetylase” (Pharmacyclics, Inc., priority 2003, dated 2008).

Molecules are shown by their SMILES. Counter-ions that a name gives are not always drawn.

For this experiment, the target named is HDAC-1 (Homo sapiens, UniProt Q13547). Kind of experiment: Inhibition of HDAC in vitro (fluorogenic acetyl-Gly-Ala-(N-acetyl-Lys)-AMC / trypsin assay). In kind it is biochemical. As to conditions: HDAC-1 200 pM, 30 min preincubation, pH 7.4; inhibition constants obtained with BatchKi. Here is the method:
The HDAC inhibitory activity of the compounds of this invention in vitro was determined as follows.
Measurements were performed in a reaction volume of 100 μL using 96-well assay plates. HDAC-1 (200 pM final concentration) in reaction buffer (50 mM HEPES, 100 mM KCl, 0.001% Tween-20, 5% DMSO, pH 7.4) was mixed with inhibitor at various concentrations and allowed to incubate for 30 min, after which trypsin and acetyl-Gly-Ala-(N-acetyl-Lys)-AMC were added to final concentrations of 50 nM and 25 μM, respectively, to initiate the reaction. Negative control reactions were performed in the absence of inhibitor in replicates of eight.
The reactions were monitored in a fluorescence plate reader. After a 30 min lag time, the fluorescence was measured over a 30 min time frame using an excitation wavelength of 355 nm and a detection wavelength of 460 nm. The increase in fluorescence with time was used as the measure of the reaction rate. Inhibition constants were obtained using the program BatchKi (Kuzmic et al. Anal. Biochem. 286, 45-50, (2000)).

Chain of HDAC-1 (Q13547 whole entry, species assumed): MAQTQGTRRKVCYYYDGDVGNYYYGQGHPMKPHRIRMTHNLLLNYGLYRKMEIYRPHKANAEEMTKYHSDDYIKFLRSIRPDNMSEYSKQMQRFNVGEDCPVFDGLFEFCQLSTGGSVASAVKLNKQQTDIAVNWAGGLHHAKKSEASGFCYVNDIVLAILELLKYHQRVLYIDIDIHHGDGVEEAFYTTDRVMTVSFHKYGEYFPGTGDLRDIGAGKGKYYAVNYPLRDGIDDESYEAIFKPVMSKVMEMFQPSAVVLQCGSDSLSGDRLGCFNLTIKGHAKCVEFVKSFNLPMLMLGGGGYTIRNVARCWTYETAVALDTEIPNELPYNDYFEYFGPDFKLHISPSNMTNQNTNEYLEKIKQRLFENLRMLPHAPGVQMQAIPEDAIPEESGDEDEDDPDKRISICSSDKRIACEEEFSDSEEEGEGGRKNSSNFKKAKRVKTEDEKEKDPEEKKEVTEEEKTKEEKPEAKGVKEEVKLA

Consider `CN(C)Cc1c(C(=O)NCC#Cc2ccc(C(=O)NO)cc2)oc2ccccc12` [Compound 22, Table I, N-hydroxy-4-[3-(3-N,N-dimethylaminomethylbenzofiuran-2-ylcarbonylamino)prop-1-ynyl]-benzamide hydrochloride], for which the Ki (commonly a measure of affinity in units of concentration, obtained from inhibition or displacement) is 22 nM. In other words, the double-digit nanomolar range.
